Patent publication US20120196858A1, “METHOD OF PROMOTING APOPTOSIS AND INHIBITING METASTASIS” (Poniard Pharmaceuticals ,Inc., priority 2009, published 2012)
Where two headings read alike, the source gives them in different places.

What was measured:
[1] = Pharmacokinetic (PK) evaluation in mice; type: in vivo, Balb/c mice
Procedure: Blood samples were collected via terminal heart puncture at 0.5, 1, 2, 4, 8, 12, 24 and 48 h for p.o. administration and 0.083, 0.25, 0.5, 1, 2, 4, 8, 12, 24 and 48 h for i.p. and i.v. administration. 3 mice per time point were used. For ad libitum administration, blood samples were collected after 7 days using five mice per group. Samples were collected in tubes containing 0.05 ml 0.5 M EDTA, centrifuged at 900×g for 15 min at room temperature, and the plasma collected. PND-1186 content was determined by high-performance liquid chromatography (HPLC) and mass spectroscopy analyses (see Supplemental Methods).

[2] = test system: 4T1 cells; assay: Soft agar colony growth and apoptosis assay; type: cell-based, murine
Procedure: (§1) Anchorage-dependent, spheroid, and soft agar cell growth assays: Cells (2×10^5) were plated per 35 mm well under adherent (tissue culture-treated) and non-adherent conditions (poly-HEMA-coated) in 6-well plates (Costar) in growth media. Between 24 and 168 h, all cells were collected, a single cell suspension was prepared by limited trypsin-EDTA treatment, and viable cells were enumerated by trypan blue staining and counting (ViCell XR, Beckman). For spheroid area determination, cells were imaged after 72 h in phase contrast using an Olympus IX51 microscope. Area was calculated using Image J software (version 1.43). For soft agar assays, 48-well plates were coated with a 1:4 mix of 2% agar (EM Science) in 0.2 ml growth media (bottom layer). 5×10^4 cells were plated per well (in triplicate) in a mixture of 0.3% agar in 0.2 ml growth media (top layer). […] After 10 days, colonies were imaged in phase contrast, enumerated by counting 9 fields (3 fields per well), and total area determined using Image J. For all analyses, experimental points were performed in triplicate and were experiments were repeated at least two times.
Cell pellets were resuspended in 300 p. 1 of PBS containing propidium iodide (PI) (10 μg/ml), DNAse-free RNAse (100 μg/ml, Qiagen), and then incubated at 37° C. with agitation for 1 h. Samples were analyzed by flow cytometry (FACSCalibur, Becton-Dickinson) and cell cycle analyses were performed by ModFit LT3.2 software (Verity software house). Hypodiploid DNA content as a measure of cell apoptosis was detected by PI staining as described ^29. […] Quadrant gates were positioned based on cell autofluorescence (negative) staurosporine-treated (positive) controls. Apoptosis was calculated to be the percent of annexin V-positive cells. In the soft agar assays, apoptosis was quantified by visual inspection of at least 200 cells and was defined as the appearance of membrane blebbing or cell shrinkage. Apoptosis was also detected by appearance of cleaved caspase-3 antibody reactivity in protein lysates by immunoblotting.

[3] = test system: 4T1 cells; assay: Adherent and suspended (non-adherent) cell growth, cell numbers; type: cell-based, murine
Procedure: as §1

[4] = test system: 4T1 tumors; assay: Orthotopic 4T1 breast carcinoma model (breast fat pad)
Procedure: Immunohistochemistry: For the detection of apoptosis, sections (7 μm) were analyzed using a terminal deoxynucleotidyl transferase dUTP nick end labeling (TUNEL) kit (Roche). For CD45 staining, sections (7 μm) were fixed in 4% paraformaldehyde, rinsed in PBS, and blocked with a solution of PBS containing 5% BSA, 1% goat serum and 0.1% Triton X. FITC-conjugated anti-CD45 antibodies (Invitrogen) at 1 μg/ml in 5% BSA and PBS were incubated for 2 hours. FITC-conjugated IgG2b isotype antibodies (Invitrogen) at the same concentration were used as a negative control. […] Images were sequentially captured at 40× (UPLFL objective, 1.3 NA; Olympus) using a monochrome charge-coupled camera (ORCA ER; Hamamatsu), an inverted microscope (IX51; Olympus), and Slidebook software (v5.0, Intelligent Imaging). Images were pseudo-colored, overlaid, and merged using Photoshop CS3 (Adobe). Fluorescence quantitation was performed using Image J (v1.43).
Orthotopic breast cancer models: One million 4T1 or MDA-MB-231 cells in 10 μl PBS were injected into the T4 mammary fat pad of 8-10 week old mice using a Hamilton syringe. […] Tumors were measured every 3-4 days with digital vernier calipers and tumor volume (mm^3) was calculated using the formula: V=axb^2/2 (a=length, mm; b=width, m) Body weight was measured weekly to assess toxicity. Lungs, spleen, and primary tumors were surgically removed and weighed.
For 4T1 tumor metastasis analyses, lungs were rinsed in PBS, dorsal and ventral fluorescent images acquired using the OV100 Small Animal Imaging System (Olympus). For all images, a common threshold for mCherry fluorescence was set and lung metastatic burden was calculated by determining the average integrated pixel density for micro-tumors present in each lung using Image J software. Metastatic tumor burden (number of metastatic lesion or mean pixel volume) was determined and groups (Negligible, Moderate, and High) were separated based upon numbers distribution. After imaging, lungs were fixed in Bouin's solution (Sigma), paraffin embedded, sectioned, and stained with hematoxylin and eosin (H&E) for histological evaluation. Images were acquired using a differential interference contrast-equipped Olympus IX81 inverted microscope and an Olympus DP71 digital color camera using Slidebook (v5.0) software. […] Lungs were resected, embedded in OCT, and frozen in liquid nitrogen.

[5] = 0.5 mg/ml ad libitum in drinking water
[6] = 150 mg/kg p.o. b.i.d. vs vehicle
[7] = 150 mg/kg p.o., b.i.d., 15 days
[8] = oral, 4T1 and MDA-MB-231 orthotopic models

CNC(=O)c1ccccc1Nc1cc(Nc2ccc(N3CCOCC3)cc2OC)ncc1C(F)(F)F [PND-1186]
CSS ([1]; 0.5 mg/ml ad libitum, mice): 1.16 µM
AUC(0-inf) ([1]; 2 mg/kg i.v., mice): 6,960 ng · h/mL
Cl ([1]; 2 mg/kg i.v., mice): 287 mL/h/kg
Vd ([1]; 2 mg/kg i.v., mice): 714 mL/kg
t1/2 ([1]; 2 mg/kg i.v., mice): 1.72 h
AUC(0-inf) ([1]; 30 mg/kg i.p., mice): 32,500 ng · h/mL
Cmax ([1]; 30 mg/kg i.p., mice): 34.8 µM
TMAX ([1]; 30 mg/kg i.p., mice): 15 min
t1/2 ([1]; 30 mg/kg i.p., mice): 2.27 h
AUC(0-inf) ([1]; 100 mg/kg i.p., mice): 147,000 ng · h/mL
Cmax ([1]; 100 mg/kg i.p., mice): 117 µM
TMAX ([1]; 100 mg/kg i.p., mice): 30 min
t1/2 ([1]; 100 mg/kg i.p., mice): 2.65 h
maximal plasma level ([1]; 150 mg/kg oral, by 4 h): ~14 µM
sustained plasma level ([1]; 150 mg/kg oral, for 12 h): above 3 μM
AUC(0-inf) ([1]; 150 mg/kg p.o., mice): 77,400 ng · h/mL
Cmax ([1]; 150 mg/kg p.o., mice): 14 µM
TMAX ([1]; 150 mg/kg p.o., mice): 240 min
t1/2 ([1]; 150 mg/kg p.o., mice): 2.15 h
AUC(0-inf) ([1]; Balb/c, mouse, plasma, oral, 0.5 mg/kg, 0.5 mg/ml ad libitum, mice, read-out: AUC(0-inf)): 13.1 ng·h/mL
bioavailability (% F) ([1]; i.p. and p.o. dosing): 14.8 to 42.2%
terminal half lives (t1/2) ([1]; i.p. and p.o. dosing): 2.15 to 2.65 h
dose dependence of plasma concentrations, Cmax and AUC(0-inf) ([1]; mouse, in vivo): increased in a linear fashion as a function of dose
4T1 cell apoptosis (membrane blebbing and cell shrinkage) ([2]; 0.2 μM, soft agar): > 50%
total number and size of soft agar colonies ([2]; 10 days, dose-dependent): inhibited both the total number and size
inhibition at 0.2 µM ([2]; Mus musculus, 4T1, 240 h, 0.2 μM, 10 days, read-out: inhibition of soft agar colony size): 77%
reduction of cell number, suspended cells ([3]; 0.1 μM, 72 h, vs DMSO): significant (p<0.001)
cell proliferation, FAK-Cas phosphorylation and cell death ([3]; 100 nM, colonies in soft agar or non-adherent conditions): inhibited cell proliferation, FAK-Cas phosphorylation, and induced cell death
total cell number, adherent cells ([3]; 1.0 μM, 72 h): decreased in number
total cell number, adherent cells ([3]; 0.1 to 1.0 μM, 24 or 48 h): no differences were observed
total cell number, suspended cells ([3]; all concentrations (0.1 to 1.0 μM), 48 h): reduced cell numbers
cytotoxicity to cells in culture ([3]; cells in culture): non-cytotoxic
average concentration in plasma [4, 5]: 1.0 µM
average concentration in tumors [4, 5]: 0.52 µg/g
tumor growth and tumoral FAK-p130Cas phosphorylation [4, 5]: significantly decreased tumor growth and tumoral FAK-p130Cas phosphorylation
decrease in CD45 tumor-associated staining ([4]; 150 mg/kg): 2.8 fold
tumor vasculature (anti-CD31 staining) ([4]; 150 mg/kg p.o. b.i.d.): no major vascular differences
increase of TUNEL staining in breast fat pad tumors [4, 6]: 2.8 fold
tumor volume by Day 7 [4, 6]: significantly reduced tumor volume
reduction of final tumor weight ([4]; 150 mg/kg p.o. b.i.d., 16 days): 3.1 fold
total body weight ([4]; 150 mg/kg p.o. b.i.d., 16 days): without affects on total body weight
orthotopic and syngeneic breast carcinoma tumor growth and spontaneous metastasis to lungs ([4]; 150 mg/kg p.o. bid): significantly inhibited
lung metastases by H&E staining of lung sections [4, 7]: detectable 4T1 lung metastases in control but not PND-1186-treated mice
mice with high lung metastatic burden [4, 7]: no mice with a high metastatic burden
mice with negligible lung metastases [4, 7]: 7/12
tumor histology ([4]; ad libitum PND-1186): necrotic regions at the tumor core, increased TUNEL staining, and decreased leukocyte infiltrate
FAK pY397 and p130Cas pY410 phosphorylation in primary tumors ([4]; ad libitum oral): sufficient to inhibit both FAK pY397 and p130Cas pY410 phosphorylation
mice with negligible to moderate lung metastatic burden ([4]; ad libitum oral): 13/15
pY118 paxillin phosphorylation in tumors ([4]; ad libitum oral): inhibited pY118 paxillin phosphorylation
pY416 Src, pY402 Pyk2, pS473 Akt, pT308 Akt phosphorylation in tumors ([4]; ad libitum oral): not pY416 Src nor pY402 Pyk2, pS473 Akt, or pT308 Akt phosphorylation
spleen size ([4]; ad libitum oral): normal size
inhibition of final tumor mass ([4]; ad libitum oral, Day 22): > 1.8 fold
toxicity or weight loss ([4]; ad libitum oral, Day 22): without toxicity or weight loss
tumor-associated inflammatory cell infiltration and splenomegaly ([4]; mice with syngeneic 4T1 tumors): significantly decreased tumor-associated inflammatory cell infiltration and splenomegaly
tumor-associated splenomegaly ([4]; mouse, in vivo): reduced tumor-associated splenomegaly
anti-tumor and anti-metastatic effects [4, 8]: significant anti-tumor and anti-metastatic effects
tolerability of oral dosing [4, 8]: without animal morbidity, death or weight loss
spleen appearance ([4]; tumor-bearing PND-1186-treated mice): healthy and indistinguishable from non-treated, non-tumor bearing mice
